In the NIST ThermoML archive (doi:10.1021/je060271a):

Conditions: 303.15 K, Liquid, Vibrating tube method

CCCCCC(=O)OCC(COC(=O)CCCCC)(COC(=O)CCCCC)COC(=O)CCCCC [pentaerythritol tetrahexanoate]
Conditions	mass density [kg/m3]
941.9 kPa	988.9
951.9 kPa	989
958.5 kPa	988.9
967.6 kPa	989
978.3 kPa	988.9
988.8 kPa	988.9
998 kPa	988.9
1009.3 kPa	989
1019.8 kPa	989
1029.2 kPa	989
1039.1 kPa	989.1
1048.9 kPa	989
1061.2 kPa	989
1072 kPa	989
1082 kPa	989.1
1093.8 kPa	989.1
1103.9 kPa	989.2
1113.5 kPa	989
1123.5 kPa	989.2
1135.9 kPa	989
1146.3 kPa	989
1156.2 kPa	989.1
1166.8 kPa	989.1
1179.7 kPa	989.1
1189.9 kPa	989.1
1200.7 kPa	989.1
1210.9 kPa	989.1
1223.8 kPa	989.2
1234.4 kPa	989.1
1245.1 kPa	989.2
1258.2 kPa	989.1
1269.3 kPa	989.2
1280 kPa	989.2
1291.5 kPa	989.2
1305.2 kPa	989.2
1316.3 kPa	989.2
1327.8 kPa	989.1
1339.4 kPa	989.3
1353.7 kPa	989.2
1365.5 kPa	989.2
1377.5 kPa	989.2
1391.9 kPa	989.3
1719.8 kPa	989.5
1738.4 kPa	989.5
1753.5 kPa	989.5
1768.6 kPa	989.6
1784.2 kPa	989.5
1803 kPa	989.6
1854.3 kPa	989.5
1870.3 kPa	989.5
1886.5 kPa	989.6
1903.5 kPa	989.5
1923.6 kPa	989.6
2090.4 kPa	989.6
2108.2 kPa	989.7
2167.4 kPa	989.7
2229.2 kPa	989.8
2248.4 kPa	989.7
2292.3 kPa	989.8
2312.5 kPa	989.8
2337.4 kPa	989.9
2355.8 kPa	989.8
2380.4 kPa	989.9
2401.1 kPa	989.9
2421.9 kPa	989.8
2443 kPa	989.9
2468.5 kPa	990
2489.7 kPa	990
2511 kPa	990
2536.5 kPa	989.9
2558.6 kPa	990
2580.8 kPa	990
